Publication PMC5421785, “Citrullination only infrequently impacts peptide binding to HLA class II MHC” (PLoS ONE, 2017)
Read-outs that look alike come from different tables or passages of the source. Square brackets hold non-standard residues; d marks the D form. Ends that are not written are not given here. Peptide text beside a SMILES is read from it. Cit = NC(=O)NCCC[C@H](N)C(=O)O

How the values were obtained:
Assay in all cases: HLA class II peptide binding, inhibition of radiolabeled peptide binding to purified MHC; for IC50 DRB1*01:01: competition with radiolabeled peptide (0.1–1 nM); for IC50 DRB1*04:01: competition with radiolabeled peptide (0.1–1 nM)
[1] = target: T1, HLA-DRB1*01:01 (Homo sapiens, UniProt P01903+P01911, A100R/D57E/F55L/F60I/F76Y/I96L/L162R/M171V/P40L/Q125E/R42F/V115G/Y59C); for IC50 DRB1*01:01: competition with radiolabeled peptide (0.1–1 nM)
T1 construct: EBV transformed homozygous cell lines were used as sources of MHC molecules; endogenous in cells; host or cells: EBV transformed homozygous cell lines

[2] = target: T2, HLA-DRB1*04:01 (Homo sapiens, UniProt P01903+P01911, A100K/A169T/F76Y/I96L/K127E/L162R/M171V/N62H/P40V/Q125Y/R42H/S133A/S149N/S66Y/V115G/V209L/W38E); for IC50 DRB1*04:01: competition with radiolabeled peptide (0.1–1 nM)
T2 construct: EBV transformed homozygous cell lines were used as sources of MHC molecules; endogenous in cells; host or cells: EBV transformed homozygous cell lines

[3] = target: DRB1*04:04 (Homo sapiens, UniProt P01903+P01911, A100R/A169T/F76Y/I96L/K127E/L162R/M171V/N62H/P40V/Q125Y/R42H/S133A/S149N/S66Y/V209L/W38E); conditions: SE+, competition with radiolabeled peptide, two-day incubation, three or more independent experiments
[4] = target: DRB1*04:05 (Homo sapiens, UniProt P01903+P01911, A100R/A169T/D86S/F76Y/I96L/K127E/L162R/M171V/N62H/P40V/Q125Y/R42H/S133A/S149N/S66Y/V115G/V209L/W38E); conditions: SE+, competition with radiolabeled peptide, two-day incubation, three or more independent experiments
[5] = target: DRB1*10:01 (Homo sapiens, UniProt P01903+P01911, A100R/A169T/D57E/F55L/F60V/F69Y/F76Y/I96L/L162R/M171V/P40V/Q260P/Q39E/Q99R/R195Q/R42F/S149N/S66Y/T210M/V115G/V67A/W38E/Y59R/Y61H); conditions: SE+, competition with radiolabeled peptide, two-day incubation, three or more independent experiments
[6] = target: DRB1*04:02 (Homo sapiens, UniProt P01903+P01911, A100E/A169T/F76Y/K127E/L162R/M171V/N62H/P40V/Q125Y/Q99D/R42H/S133A/S149N/S66Y/V209L/W38E); conditions: SE-, competition with radiolabeled peptide, two-day incubation, three or more independent experiments
[7] = target: DRB1*11:01 (Homo sapiens, UniProt P01903+P01911, A100R/A169T/A87E/I96F/K41T/L162R/M171V/P40S/Q125H/Q178H/Q39Y/Q99D/R42S/S66Y/T262R/V115G/W38E); conditions: SE-, competition with radiolabeled peptide, two-day incubation, three or more independent experiments
[8] = target: DRB1*12:01 (Homo sapiens, UniProt P01903+P01911, A100R/A169T/D57E/D86V/F55L/H45Y/K41T/L162R/M171V/P40S/Q125H/Q178H/Q39Y/Q99D/R42G/S66L/T262R/V114A/V67L/W38E/Y59H/Y61H/Y89S); conditions: SE-, competition with radiolabeled peptide, two-day incubation, three or more independent experiments
[9] = target: DRB1*13:02 (Homo sapiens, UniProt P01903+P01911, A100E/A169T/K41T/L162R/M171V/P40S/Q125H/Q178H/Q39Y/Q99D/R42S/S66N/T262R/V115G/W38E/Y61H); conditions: SE-, competition with radiolabeled peptide, two-day incubation, three or more independent experiments
[10] = target: T3, DRB1*15:01 (Homo sapiens, UniProt P01903+P01911); conditions: SE-, competition with radiolabeled peptide, two-day incubation, three or more independent experiments
T3 construct: EBV transformed homozygous cell lines were used as sources of MHC molecules; endogenous in cells; host or cells: EBV transformed homozygous cell lines

[11] = target: DRB1*16:02 (Homo sapiens, UniProt P01903+P01911, A100R/F76Y/I96L/Q99D/V115G); conditions: SE-, competition with radiolabeled peptide, two-day incubation, three or more independent experiments
[12] = target: DRB1*03:01 (Homo sapiens, UniProt P01903+P01911, A100K/A102G/A103R/A169T/F55Y/I96L/K41T/L162R/M171V/P40S/Q125H/Q178H/Q39Y/R42S/S66N/T106N/T262R/W38E/Y61H); conditions: Other DR, competition with radiolabeled peptide, two-day incubation, three or more independent experiments
[13] = target: DRB1*07:01 (Homo sapiens, UniProt P01903+P01911, A100R/A102G/A103Q/D57E/D86V/E43K/F76Y/K127E/L162R/M171V/P40G/Q125H/Q99D/R33Q/R42Y/R54Q/S133A/S66F/T210M/V115G/Y107V/Y59L/Y89S); conditions: Other DR, competition with radiolabeled peptide, two-day incubation, three or more independent experiments
[14] = target: DRB1*08:02 (Homo sapiens, UniProt P01903+P01911, A100R/A103L/A169T/F76Y/H45Y/I96F/K41T/L162R/M171V/P40S/Q125H/Q178H/Q39Y/Q99D/R218S/R42G/S66Y/V115G/W38E); conditions: Other DR, competition with radiolabeled peptide, two-day incubation, three or more independent experiments
[15] = target: DRB1*09:01 (Homo sapiens, UniProt P01903+P01911, A100R/A103E/D57H/D86V/F55Y/F60I/F76Y/I96F/K127E/L162R/M171V/P40D/Q125H/Q99R/R33Q/R42F/S133A/S66N/T210M/V115G/W38K/Y107V/Y59G/Y89S); conditions: Other DR, competition with radiolabeled peptide, two-day incubation, three or more independent experiments
[16] = target: T4, DRB3*01:01 (Homo sapiens, UniProt P01903+P79483); conditions: Other DR, competition with radiolabeled peptide, two-day incubation, three or more independent experiments
T4 construct: EBV transformed homozygous cell lines were used as sources of MHC molecules; endogenous in cells; host or cells: EBV transformed homozygous cell lines

[17] = target: DRB3*02:02 (Homo sapiens, UniProt P01903+P79483, A212P/D57E/F66Y/L67A/R103Q/R218S/R40L/S89Y/T80R/V86D/Y55F/Y59H); conditions: Other DR, competition with radiolabeled peptide, two-day incubation, three or more independent experiments
[18] = target: T5, DRB4*01:01 (Homo sapiens, UniProt P01903+P13762, G164S); conditions: Other DR, competition with radiolabeled peptide, two-day incubation, three or more independent experiments
T5 construct: EBV transformed homozygous cell lines were used as sources of MHC molecules; endogenous in cells; host or cells: EBV transformed homozygous cell lines

[19] = target: T6, DRB5*01:01 (Homo sapiens, UniProt P01903+Q30154); conditions: Other DR, competition with radiolabeled peptide, two-day incubation, three or more independent experiments
T6 construct: EBV transformed homozygous cell lines were used as sources of MHC molecules; endogenous in cells; host or cells: EBV transformed homozygous cell lines

[20] = target: T7, DPB1*04:01 (Homo sapiens, UniProt P04440+P20036)
T7 construct: EBV transformed homozygous cell lines were used as sources of MHC molecules; endogenous in cells; host or cells: EBV transformed homozygous cell lines
T7 sequence (P04440 30-258): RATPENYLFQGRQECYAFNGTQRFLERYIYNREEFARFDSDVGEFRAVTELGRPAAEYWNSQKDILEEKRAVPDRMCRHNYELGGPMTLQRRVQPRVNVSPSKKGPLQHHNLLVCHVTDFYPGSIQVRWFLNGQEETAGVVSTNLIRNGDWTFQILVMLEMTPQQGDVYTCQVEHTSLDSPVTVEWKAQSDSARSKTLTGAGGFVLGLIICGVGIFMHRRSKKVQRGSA
T7 sequence (P20036 29-260 partner): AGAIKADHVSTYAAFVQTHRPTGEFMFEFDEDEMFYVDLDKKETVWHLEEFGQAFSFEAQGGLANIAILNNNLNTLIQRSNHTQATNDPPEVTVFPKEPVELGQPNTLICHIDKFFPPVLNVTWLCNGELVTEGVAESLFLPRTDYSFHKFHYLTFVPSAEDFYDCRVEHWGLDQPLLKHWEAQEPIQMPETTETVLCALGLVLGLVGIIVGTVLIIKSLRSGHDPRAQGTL

[21] = target: DQB1*03:01 (Homo sapiens, UniProt P01909+P01920); conditions: DQ, competition with radiolabeled peptide, two-day incubation, three or more independent experiments
[22] = DP, purified MHC, competition with radiolabeled peptide, two-day incubation, three or more independent experiments
[23] = wild-type (unmodified Arg) 15-mer peptide, purified HLA-DRB1*01:01, read-out: DRB1*01:01 binding capacity, WT peptide (IC50 nM)
[24] = wild-type (unmodified Arg) 15-mer peptide, purified HLA-DRB1*04:01, read-out: DRB1*04:01 binding capacity, WT peptide (IC50 nM)
[25] = read-out: DRB1*01:01 binding capacity, WT peptide (IC50 nM)
[26] = read-out: DRB1*04:01 binding capacity, WT peptide (IC50 nM)

Sequence of DQB1*03:01 (P01920 33-261, other chains not shown): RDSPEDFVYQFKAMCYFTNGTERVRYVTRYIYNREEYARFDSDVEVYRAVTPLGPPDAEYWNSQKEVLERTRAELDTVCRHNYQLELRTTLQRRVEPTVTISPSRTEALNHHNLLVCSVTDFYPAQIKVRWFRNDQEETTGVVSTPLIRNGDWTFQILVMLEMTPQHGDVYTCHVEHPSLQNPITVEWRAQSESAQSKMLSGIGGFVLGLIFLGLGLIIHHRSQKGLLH

CC(C)C[C@H](NC(=O)[C@H](CC(C)C)NC(=O)[C@@H](NC(=O)[C@@H](N)C(C)C)C(C)C)C(=O)N[C@H](C(=O)N[C@@H](C)C(=O)N[C@H](C(=O)N[C@@H](CCC(=O)O)C(=O)NCC(=O)N[C@@H](CCCNC(N)=O)C(=O)N[C@H](C(=O)N[C@@H](CCCNC(=N)N)C(=O)N[C@H](C(=O)N[C@@H](CC(N)=O)C(=O)N[C@@H](CO)C(=O)N[C@@H](C)C(=O)N[C@@H](Cc1ccc(O)cc1)C(=O)N[C@@H](CCC(N)=O)C(=O)N[C@@H](CC(=O)O)C(=O)N[C@@H](CCCCN)C(=O)O)C(C)C)C(C)C)[C@@H](C)O)C(C)C [Aggrecan 84–103 Cit] (H-VVLLVATEG[Cit]VRVNSAYQDK-OH)
IC50 ([1]; read-out: IC50 DRB1*01:01): 3860 nM
IC50 ([2]; read-out: IC50 DRB1*04:01): 827 nM
IC50 [3]: 0.854 µM
IC50 [4]: 0.047 µM
IC50 [5]: 2.42 µM
IC50 [6]: 4.26 µM
IC50 [7]: 29.7 µM
IC50 [8]: 11 µM
IC50 [9]: 0.552 µM
IC50 [10]: 7.6 µM
IC50 [11]: 22.8 µM
IC50 [12]: 11.1 µM
IC50 [13]: 8.47 µM
IC50 [14]: 17 µM
IC50 [15]: 28.5 µM
IC50 [16]: 18.9 µM
IC50 [17]: 0.051 µM
IC50 [18]: 2.34 µM
IC50 [19]: 0.74 µM
IC50 [20, 22]: 16.2 µM
IC50 [21]: 0.382 µM

CSCC[C@H](NC(=O)[C@H](Cc1ccc(O)cc1)NC(=O)[C@H](CCC(N)=O)NC(=O)[C@@H](N)CC(C)C)C(=O)N[C@@H](CCCNC(N)=O)C(=O)N[C@@H](C)C(=O)N[C@@H](CC(=O)O)C(=O)N[C@@H](CCC(N)=O)C(=O)N[C@@H](C)C(=O)N[C@@H](C)C(=O)NCC(=O)NCC(=O)N[C@@H](CC(C)C)C(=O)N[C@@H](CCCNC(=N)N)C(=O)O [Collagen II 1236–1249 Cit] (H-LQYM[Cit]ADQAAGGLR-OH)
IC50 ([1]; read-out: IC50 DRB1*01:01): 232 nM
IC50 ([2]; read-out: IC50 DRB1*04:01): 13 nM
IC50 [3]: 0.216 µM
IC50 [4]: 7.34 µM
IC50 [5]: 0.432 µM
IC50 [6]: 0.211 µM
IC50 [7]: > 30 µM
IC50 [8]: > 30 µM
IC50 [9]: 8.29 µM
IC50 [10]: 15.2 µM
IC50 [11]: > 30 µM
IC50 [12]: 0.072 µM
IC50 [13]: > 30 µM
IC50 [14]: 2.15 µM
IC50 [15]: 0.276 µM
IC50 [16]: 0.063 µM
IC50 [17]: 0.481 µM
IC50 [18]: 0.0073 µM
IC50 [19]: 10.2 µM
IC50 [20, 22]: > 30 µM
IC50 [21]: 4.12 µM

CC(C)C[C@H](NC(=O)[C@H](CCCCN)NC(=O)[C@H](CC(C)C)NC(=O)[C@@H](NC(=O)[C@H](CC(N)=O)NC(=O)[C@H](CCC(N)=O)NC(=O)[C@H](CCCCN)NC(=O)[C@@H](NC(=O)[C@H](Cc1ccc(O)cc1)NC(=O)[C@H](CCCCN)NC(=O)[C@@H]1CCCN1)C(C)C)[C@@H](C)O)C(=O)N[C@@H](C)C(=O)N[C@H](C(=O)O)[C@@H](C)O [HA 307–319, reference compound]
IC50 [20]: 39.1 µM

TNESLERQMREMEEN [Vimentin 336 WT]
IC50 [1, 23]: 15900 nM
IC50 [2, 24]: > 40000 nM

TNLDSLPLVDTHSKR [Vimentin 426 WT]
IC50 [1, 23]: 904 nM
IC50 [2, 24]: > 40000 nM

TVETRDGQVINETSQ [Vimentin 446 WT]
IC50 [1, 25]: 17900 nM
IC50 [2, 26]: 9590 nM

VDQLTNDKARVEVER [Vimentin 161 WT]
IC50 [1, 25]: 16500 nM
IC50 [2, 26]: 31600 nM
